Assay results published in patent US9029078B2, “Perfusion and/or preservation solution for organs” (Philadelphia College of Osteopathic Medicine, priority 2005, dated 2015).
Entries after “also recorded” stand apart in the source; their conditions may differ. Where no end group is shown, it is not given here.

Assays:
rat aortic endothelium = assay: Measurement of NO release from rat aortic segments; settings: for Increase in NO release above basal: basal 1.85±0.18
From the text: FIG. 5. Measurement of NO release from rat aortic segments. […] All values are expressed as means± SEM. Numbers at bottom of bars are numbers of separate experiments per group. *p<0.05, **p<0.01, from basal values. FIG. 10. Measurement of NO release from rat aortic segments. […] All values are expressed as means± SEM. Numbers at bottom of bars are numbers of separate experiments per group. *p<0.05, **p<0.01, from basal values. FIG. 17. Measurement of NO release from rat aortic segments. […] All values are expressed as means± SEM. Numbers at bottom of bars are numbers of separate experiments per group. **p<0.01, from basal values. PMN adherence to coronary vascular endothelium was also evaluated within the assessment of total intravascular and infiltrated PMNs. […] NO release from rat aortic endothelium was measured to determine if PKC ζ peptide inhibitor provides cardioprotection by a mechanism involving increased endothelial NO release. […] The eNOS inhibitor, L-NAME, was used as another control in order to decrease basal release of NO to zero.

[1] = test system: isolated perfused rat hearts (I/R+PMNs); assay: Isolated perfused rat heart, 20 min ischemia / 45 min reperfusion with PMNs: cardiac contractile function (LVDP, +dP/dtmax, LVEDP); settings: for LVDP of initial baseline (initial depression): 15 min into reperfusion; for PMN-induced contractile dysfunction / decrease in +dP/dt max (in words): final +dP/dt max after reperfusion; for PMN-induced contractile dysfunction / decrease in +dP/dt max (in words) / PMN-induced contractile dysfunction / decrease in LVDP (in words): vs I/R+PMNs; for PMN-induced contractile dysfunction / decrease in LVDP (in words): final LVDP, 45 min post reperfusion
Method: (§1) Data were recorded every 5 min for 45 min post-reperfusion. After each experiment, the left ventricle was isolated, fixed in 4% paraformaldehyde and stored at 4° C. for later histological analysis.

fMLP-stimulated rat PMNs = assay: Superoxide release from fMLP-stimulated rat PMNs; format: cell-based; settings: for Superoxide release (absorbance): fMLP-stimulated PMNs alone 0.13±0.01
Method: FIG. 11. Superoxide release from rat PMNs. Superoxide release was measured from 5×10^6 PMNs after formyl-methionyl-leucyl-phenylalanine (fMLP) (200 nM) stimulation. SOD (10 μg/ml) was employed as a positive control. The change in absorbance (Δ) was measured 90 sec after fMLP addition (peak response). […] All values are means± SEM. Numbers at bottom of bars are numbers of separate experiments per group.

PMA-stimulated rat PMNs = assay: Superoxide release from PMA-stimulated rat PMNs; format: cell-based; settings: for Superoxide release (absorbance): PMA-stimulated PMNs alone 0.49±0.03
Method: FIG. 6. Superoxide release from rat PMNs. Superoxide release was measured from 5×10^6 PMNs after phorbol-12-myristate-13-acetate (PMA) (15 nM) stimulation. Superoxide dismutase (SOD) (10 μg/ml) was employed as a positive control. The change in absorbance (Δ) was measured 360 sec after PMA addition (peak response). […] All values are means± SEM. Numbers at bottom of bars show the numbers of separate experiments per group.
FIG. 18. Superoxide release from rat PMNs. Superoxide release was measured from 5×10^6 PMNs after PMA (15 nM) stimulation. SOD (10 μg/ml) was employed as a positive control. The change in absorbance (Δ) was measured 360 sec after PMA addition (peak response). […] All values are means± SEM. Numbers at bottom of bars show the numbers of separate experiments per group.
FIG. 22. Superoxide release from rat PMNs. Superoxide release was measured from 5×10^6 PMNs after PMA (15 nM) stimulation. The change in absorbance (Δ) was measured 360 sec after PMA addition (peak response). […] All values are means± SEM. Numbers at bottom of bars show the numbers of separate experiments per group.

[2] = test system: PMN adherence to coronary vascular endothelium; assay: Histological assessment of intravascular PMNs adhering to the coronary vasculature; design: species or system rat
Method: FIG. 4b. Histological assessment of intravascular PMNs that adhered to the coronary vasculature in isolated perfused rat heart samples taken from 3 rats per group
and 10 areas per heart. […] Hatched boxes represent non-PMN perfused hearts and black boxes represent PMN-perfused hearts. All values are mean numbers of PMNs/mm^2 of heart area± SEM.
PMN adherence to coronary vascular endothelium was also evaluated within the assessment of total intravascular and infiltrated PMNs. […] NO release from rat aortic endothelium was measured to determine if PKC ζ peptide inhibitor provides cardioprotection by a mechanism involving increased endothelial NO release. […] The eNOS inhibitor, L-NAME, was used as another control in order to decrease basal release of NO to zero.

[3] = test system: PMN infiltration into the myocardium of isolated perfused rat hearts; assay: Histological assessment of total intravascular and infiltrated PMNs in post-reperfusion cardiac tissue; settings: I/R+PMN hearts
Method: FIG. 4a. Histological assessment of total intravascular and infiltrated PMNs in isolated perfused rat heart samples taken from 3 rats per group and 10 areas per heart. […] Hatched boxes represent non-PMN perfused hearts and black boxes represent PMN-perfused hearts. **P<0.01, from I/R+PMNs.
as §1
The cardiac injury associated with I/R in this model was closely correlated with the substantial number of PMNs infiltrating the myocardium within the 45 min reperfusion period. During reperfusion, a significant number of PMNs transmigrated into the myocardium, increasing from less than 25 PMN/mm^2 in Sham I/R hearts to more than 180 PMN/mm^2 in I/R+PMN hearts at the end of the reperfusion period (FIG. 4a).

[4] = I/R+PMN hearts, 1 μM, 45 min post-reperfusion
[5] = I/R+PMN hearts, 5 μM, 45 min post-reperfusion
[6] = I/R+PMN hearts, 10 μM + L-NAME 50 μM, 45 min post-reperfusion
[7] = I/R+PMN hearts, 10 μM, 45 min post-reperfusion

Compound: CC(=O)OCC[N+](C)(C)C [Acetylcholine, reference compound]
- Increase in NO release compared to basal NO release (rat aortic endothelium; 200 nM (positive control)): 67±4%
- Increase in NO release above basal (rat aortic endothelium; 500 nM (positive control)): 3.75±0.58 pmoles NO/mg tissue

Compound: PKC βII peptide inhibitor: peptide inhibitor of protein kinase C beta II; preferred sequence SEQ ID NO: 1, preferably myristoylated (SLNPEWNET; not fully specified; listed as Homo sapiens)
- LVDP of I/R+PMN group compared to treated I/R+PMN group (time course) ([1]; 10 μM, reperfusion 0 to 45 min): significant and sustained reduction
- +dP/dtmax recovered to, of initial baseline [1, 4]: 53±6%
- LVDP recovered to, of initial baseline [1, 4]: 57±4%
- +dP/dtmax recovered to, of initial baseline [1, 5]: 63±7%
- LVDP recovered to, of initial baseline [1, 5]: 69±7%
- +dP/dtmax of initial baseline [1, 6]: 53±5%
- LVDP of initial baseline [1, 6]: 56±2%
- LVDP of initial baseline (initial depression) ([1]; I/R+PMN hearts, 10 μM): 61±10%
- +dP/dtmax recovered to, of initial baseline [1, 7]: 79±10%
- LVDP recovered to, of initial baseline [1, 7]: 82±9%
- Protective effect on +dP/dt max in the presence of L-NAME (in words) ([1]; I/R+PMN hearts, with L-NAME): blocked
- Protective effect on LVDP in the presence of L-NAME (in words) ([1]; I/R+PMN hearts, with L-NAME): significantly blocked
- PMN-induced contractile dysfunction / decrease in +dP/dt max (in words) [1]: attenuated
- PMN-induced contractile dysfunction / decrease in LVDP (in words) [1]: attenuated
- Inhibition of superoxide (in words) (fMLP-stimulated rat PMNs; 1 μM): no significant inhibition
- Superoxide release (absorbance) (fMLP-stimulated rat PMNs; 5 μM): 0.05±0.009
- Superoxide release (absorbance) (fMLP-stimulated rat PMNs; 10 μM): 0.02±0.004
- Superoxide release (absorbance) (fMLP-stimulated rat PMNs; 20 μM): 0.02±0.007
- Superoxide release after fMLP (200 nM) stimulation (in words) (fMLP-stimulated rat PMNs; 5, 10 and 20 μM, 90 sec after fMLP): significantly inhibited
- Endothelial NO release vs basal NO release (in words) (rat aortic endothelium): significantly increased; also recorded: significantly more NO
- Increase in NO release above basal (rat aortic endothelium; 1 μM): 0.75±0.19 pmoles NO/mg tissue
- Increase in NO release above basal (rat aortic endothelium; 2.5 μM): 1.91±0.44 pmoles NO/mg tissue
- Increase in NO release above basal (rat aortic endothelium; 5 μM): 2.54±0.29 pmoles NO/mg tissue
- Increase in NO release above basal (rat aortic endothelium; 10 μM): 3.49±0.62 pmoles NO/mg tissue
- Induced production of NO after treating the endothelium with L-NAME (rat aortic endothelium; L-NAME 400 μM): completely inhibited

Compound: PKC δ peptide activator: peptide activator of protein kinase C delta; preferred sequence SEQ ID NO: 3, preferably myristoylated (MRAAEDPM; not fully specified; listed as Homo sapiens)
- LVDP of I/R+PMN group compared to treated I/R+PMN group (time course) ([1]; 10 μM, reperfusion 0 to 45 min): significant and sustained reduction
- LVEDP of I/R+PMN group compared to treated I/R+PMN group (time course) ([1]; 10 μM, reperfusion 0 to 45 min): significant and sustained elevation
- +dP/dtmax recovered to, of initial baseline [1, 4]: 51±5%
- LVDP recovered to, of initial baseline [1, 4]: 60±13%
- +dP/dtmax recovered to, of initial baseline [1, 5]: 67±7%
- LVDP recovered to, of initial baseline [1, 5]: 80±9%
- LVDP of initial baseline (initial depression) ([1]; I/R+PMN hearts, 10 μM): 58±8%
- +dP/dtmax recovered to, of initial baseline [1, 7]: 79±5%
- LVDP recovered to, of initial baseline [1, 7]: 83±3%
- PMN-induced contractile dysfunction / decrease in +dP/dt max (in words) [1]: attenuated
- PMN-induced contractile dysfunction / decrease in LVDP (in words) [1]: attenuated
- Superoxide release vs PMA-stimulated rat PMNs (in words) (PMA-stimulated rat PMNs; 1 μM): no significant inhibition
- Superoxide release (absorbance) (PMA-stimulated rat PMNs; 5 μM): 0.32±0.03
- Superoxide release (absorbance) (PMA-stimulated rat PMNs; 10 μM): 0.32±0.02
- Superoxide release after PMA (15 nM) stimulation (in words) (PMA-stimulated rat PMNs; 360 sec after PMA): significantly inhibited
- PMNs adhering to the coronary vasculature vs I/R+PMN hearts (in words) [2]: attenuated
- Total intravascular and infiltrated PMNs vs I/R+PMNs (in words) [3]: attenuated
